Numbers after ± are expanded uncertainties.
Experiment: molar heat capacity at constant pressure
Conditions: 101.33 kPa, Crystal, Small sample (50 mg) DSC

| molar heat capacity at constant pressure (298.15 K) [J/K/mol] | molar heat capacity at constant pressure (303.15 K) [J/K/mol] | molar heat capacity at constant pressure (308.15 K) [J/K/mol] | molar heat capacity at constant pressure (313.15 K) [J/K/mol] | molar heat capacity at constant pressure (318.15 K) [J/K/mol] | molar heat capacity at constant pressure (323.15 K) [J/K/mol] | molar heat capacity at constant pressure (328.15 K) [J/K/mol] | molar heat capacity at constant pressure (333.15 K) [J/K/mol] | molar heat capacity at constant pressure (338.15 K) [J/K/mol] | molar heat capacity at constant pressure (343.15 K) [J/K/mol] | Compound |
| --- | --- | --- | --- | --- | --- | --- | --- | --- | --- | --- |
| 145 ± 2.9 | 145.5 ± 2.9 | 146.2 ± 2.9 | 147 ± 2.9 | 148 ± 3 | 148.4 ± 3 | 149.1 ± 3 | 150 ± 3 | 150.6 ± 3 | 151.3 ± 3 | Nc1c[nH]c(=O)[nH]c1=O [2,4(1H,3H)-pyrimidinedione, 5-amino-] |
| 189 ± 3.8 | 191 ± 3.8 | 193.1 ± 3.9 | 195.2 ± 3.9 | 197.3 ± 3.9 | 199.5 ± 4 | 201.6 ± 4 | 204 ± 4.1 | 206 ± 4.1 | 208 ± 4.2 | Cn1c(N)cc(=O)n(C)c1=O [6-amino-1,3-dimethyluracil] |
| 166.2 ± 3.3 | 167 ± 3.3 | 168 ± 3.4 | 168.5 ± 3.4 | 169.2 ± 3.4 | 170 ± 3.4 | 171 ± 3.4 | 171.4 ± 3.4 | 172.2 ± 3.4 | 173 ± 3.5 | Cn1c(N)cc(=O)[nH]c1=O [6-amino-1-methyluracil] |
| 147 ± 2.9 | 147.6 ± 3 | 148.2 ± 3 | 149 ± 3 | 149.6 ± 3 | 150.3 ± 3 | 151 ± 3 | 151.6 ± 3 | 152.3 ± 3 | 153 ± 3.1 | Nc1cc(O)nc(O)n1 [6-aminouracil] |
